These are literature values, as cited in patent US11033512B2, “Transdermal therapeutic system containing asenapine and silicone acrylic hybrid polymer” (LTS LOHMANN Therapie-Systeme AG, priority 2017, dated 2021).

Data set [1] addresses serotonin 5-HT2A receptors (Homo sapiens, UniProt P28223).

Sequence of serotonin 5-HT2A receptors (P28223 whole entry): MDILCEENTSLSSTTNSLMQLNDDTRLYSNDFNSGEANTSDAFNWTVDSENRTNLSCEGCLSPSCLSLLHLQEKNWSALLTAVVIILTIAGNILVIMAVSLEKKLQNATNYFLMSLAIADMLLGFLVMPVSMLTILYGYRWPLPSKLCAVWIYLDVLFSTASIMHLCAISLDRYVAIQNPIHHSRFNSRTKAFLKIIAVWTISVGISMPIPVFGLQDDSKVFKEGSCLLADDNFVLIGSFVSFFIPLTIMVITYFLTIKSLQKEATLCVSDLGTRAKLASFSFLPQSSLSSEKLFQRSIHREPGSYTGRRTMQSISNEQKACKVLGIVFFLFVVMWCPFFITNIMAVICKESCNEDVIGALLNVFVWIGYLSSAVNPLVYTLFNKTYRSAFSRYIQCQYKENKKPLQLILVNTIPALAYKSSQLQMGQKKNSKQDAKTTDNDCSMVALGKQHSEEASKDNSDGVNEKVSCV

One may read the bioavailability as the share of a dose that reaches the circulation, judged against a reference dose that is usually intravenous. As for `CN1C[C@H]2c3ccccc3Oc3ccc(Cl)cc3[C@@H]2C1` (relative stereo) [asenapine, (3aRS,12bRS)-rel-5-chloro-2,3,3a,12b-tetrahydro-2-methyl-1H-dibenz[2,3:6,7]oxepino[4,5-c]pyrrole], the “time of peak blood plasma concentrations” value (following sublingual administration) is 0.5 to 1.5 h. Moreover, the terminal disposition half-life (following sublingual administration, therapeutic doses) was not below 24 h. For the same compound, the bioavailability (if ingested) was less than 2%. The affinity entry in data set [1] is “high affinity”.
